# Experimental data as given in ChEMBL document CHEMBL1201862, “PubChem BioAssay data set” (2004).
# Activity calls are given as the source filed them.
# Legend:
# [1] = liver cell line viability loss – HepG2, luminescence plate reader, powder samples, set 2, cytotoxicity control, dose response (AID 651860); format: functional, cell-based
# [2] = molecular target: Vasopressin V2 receptor (Homo sapiens, UniProt P30518); assay: Late-stage results from the probe development effort to identify antagonists of arginine vasopressin receptor 1a (AVPR1a): fluorescence-based cell-based dose response AVPR2 inhibition counterscreen assay.; format: functional
# Vasopressin V2 receptor, sequence (P30518 whole entry): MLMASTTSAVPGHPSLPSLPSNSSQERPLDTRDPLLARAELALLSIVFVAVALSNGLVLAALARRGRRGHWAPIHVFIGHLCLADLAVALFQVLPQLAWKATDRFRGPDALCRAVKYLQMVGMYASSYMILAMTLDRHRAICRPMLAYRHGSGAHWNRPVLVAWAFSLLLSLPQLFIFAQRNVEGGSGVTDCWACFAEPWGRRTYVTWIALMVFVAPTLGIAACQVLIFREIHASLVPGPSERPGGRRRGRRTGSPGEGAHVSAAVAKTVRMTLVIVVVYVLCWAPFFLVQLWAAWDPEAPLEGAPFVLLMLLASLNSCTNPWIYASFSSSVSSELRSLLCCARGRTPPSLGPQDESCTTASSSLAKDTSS
# [3] = Late-stage results from the probe development effort to identify antagonists of arginine vasopressin receptor 1a (AVPR1a): fluorescence-based cell-based dose response OXTR inhibition counterscreen assay.; format: functional
# [4] = molecular target: Vasopressin V1b receptor (Homo sapiens, UniProt P47901); assay: Late-stage results from the probe development effort to identify antagonists of arginine vasopressin receptor 1a (AVPR1a): fluorescence-based cell-based dose response AVPR1b inhibition counterscreen assay.; format: functional
# Vasopressin V1b receptor, sequence (P47901 whole entry): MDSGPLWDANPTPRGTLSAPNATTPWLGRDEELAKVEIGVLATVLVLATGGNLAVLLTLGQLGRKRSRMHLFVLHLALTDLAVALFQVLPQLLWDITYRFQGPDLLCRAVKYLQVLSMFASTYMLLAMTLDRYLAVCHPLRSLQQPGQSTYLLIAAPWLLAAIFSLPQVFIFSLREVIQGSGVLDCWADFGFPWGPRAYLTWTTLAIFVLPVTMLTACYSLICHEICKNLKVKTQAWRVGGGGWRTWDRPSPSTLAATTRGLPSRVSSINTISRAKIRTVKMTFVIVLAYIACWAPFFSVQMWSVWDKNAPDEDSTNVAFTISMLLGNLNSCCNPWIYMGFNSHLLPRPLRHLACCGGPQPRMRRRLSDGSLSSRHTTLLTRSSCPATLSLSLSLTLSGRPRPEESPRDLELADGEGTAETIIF
# [5] = Late-stage results from the probe development effort to identify antagonists of arginine vasopressin receptor 1a (AVPR1a): fluorescence-based cell-based dose response AVPR1a inhibition assay.; format: functional
# [6] = CTGF mRNA reduction in DLD1 cells – cell-based, DLD1 colon cancer, RT-qPCR, cherry-pick, dose response (AID 1053122); format: functional; conditions: Cancer cell lines
# [7] = YAP1 overexpression rescue of CTGF inhibition – DLD1 cells, RT-qPCR, cherry-pick, mechanism study for YAP1 pathway inhibitor project, dose response (AID 1053127); format: functional, cell-based; conditions: DLD-1
# [8] = Dd2 parasite growth inhibition in erythrocytes – SYBR Green, dry powder samples, set 9, dose response (AID 1159568); format: functional, cell-based
# [9] = toxicity to A549 lung cells – cell-based, plate reader, dry powder, set 6, cytotoxicity control, dose response (AID 743312); format: functional
# [10] = cells; conditions: HEK293
# [11] = BioA aminotransferase inhibition, coupled fluorescent readout – biochemical, coupled fluorescence displacement, 20-point, dry powder, dose response (AID 743357); format: functional
# [12] = Plasmodium falciparum Dd2 Sybr green parasite growth Measured in Cell-Based and Microorganism Combination System Using Plate Reader - 2153-01_Inhibitor_Dose_DryPowder_Activity_Set3.; format: functional
# [13] = toxicity to human hepatoma HepG2 cells – cell-based, cherry-picked samples, cytotoxicity control, dose response (AID 1159577); format: functional
# [14] = toxicity to human HepG2 hepatoma cells – cell-based, plate reader, dry powder samples, cytotoxicity control, dose response (AID 1159569); format: functional;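 further: inhibitor potency with signal falling toward the positive control level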
# [15] = Dd2 malaria parasite growth inhibition potency – SYBR Green, dry powder samples, dose response (AID 1159566); format: functional, cell-based;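 further: potency for growth inhibition with lower SYBR green DNA signal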
# [16] = P. falciparum Dd2 growth inhibitors, dose response, SYBR Green, cherry-picked samples (AID 1159567); format: functional, cell-based
# [17] = growth inhibition of PfATP4-mutant resistant parasites – NITD609-resistant line, SYBR Green, dry powder, dose response (AID 1159571); format: functional, cell-based;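 further: parasites synchronized at ring stage by sorbitol before testing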
# [18] = growth inhibition of yeast DHODH-expressing 3D7 parasites – SYBR Green, dry powder samples, dose response (AID 1159570); format: functional, cell-based;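 further: parasite growth measured after 72 hours of compound exposure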
# [19] = RKO cell viability reduction, dose response, CellTiter-Glo luminescence (AID 1117322); format: functional
# [20] = Reduced DLD-1 viability, concentration-response, CellTiter-Glo luminescence (AID 1117352); format: functional
# [21] = HCT116 cell viability decrease, GSK3B pretreatment – CellTiter-Glo, IC50, dose response (AID 1117339); format: functional; conditions: HCT-116
# [22] = cytotoxicity toward HCT116 cells – cell-based, CellTiter-Glo luminescence, IC50, dose response (AID 1117332); format: functional; conditions: HCT-116
# [23] = SNU-C1 cell viability reduction, dose response, CellTiter-Glo luminescence (AID 1117323); format: functional, cell-based
# [24] = cytotoxicity toward Colo320 cells – cell-based, CellTiter-Glo luminescence, IC50, dose response (AID 1117334); format: functional; conditions: COLO 320
# [25] = cytotoxicity toward HT-29 cells – cell-based, CellTiter-Glo luminescence, IC50, dose response (AID 1117330); format: functional
structure (smiles),measurement,setting,value
Cc1cc(C)c(S(=O)(=O)Nc2cc(C(C(=O)OC(C)C)C(=O)C(F)(F)F)c(O)c3ccccc23)c(C)c1 (stereo not given),AC50,[1],> 52 µM (inactive)
Cc1ccccc1N1CCN(C(=O)N(CC2CC2)c2ccc(Cl)cc2)CC1,IC50,[2],1.02 µM (active)
same,IC50,[3],0.046 µM (active)
same,IC50,[4],12.8 µM (inactive)
same,IC50,[5],0.0027 µM (active)
COc1cccc(-c2ccc([C@H]3[C@H]4CN(C(=O)Cc5ccncc5)CCCCN4[C@H]3CO)cc2)c1,AC50,[6],2.79 µM (active)
same,AC50,[7],9.34 µM (active)
C[C@@H]1CCCCO[C@H](CN(C)S(=O)(=O)c2ccc(F)cc2)[C@@H](C)CN([C@H](C)CO)C(=O)c2cc(N(C)C)ccc2O1,AC50,[8],11.4 µM (active)
Cc1ccc(C(C)C)c(OCCn2c(=O)[nH]c3ccccc32)c1,AC50,[9],23.1 µM (active)
same,AC50,[10],32.4 µM (active)
CN(C)C(=O)c1ccc(N2CCN(C(=O)c3ccc4c(c3)OCO4)CC2)cc1,AC50,[11],14 µM (active)
CO[C@@H]1CN(C)C(=O)c2ccc(NC(=O)Nc3ccccc3Cl)cc2OC[C@@H](C)N(C)C[C@H]1C,AC50,[12],0.446 µM (active)
same,AC50,[13],> 39 µM (inactive)
same,AC50,[14],62.2 µM (active)
same,AC50,[15],0.102 µM (active)
same,AC50,[16],0.666 µM (active)
same,AC50,[17],0.512 µM (active)
same,AC50,[18],4.25 µM (active)
Cc1ccc2c(Br)cc(Br)c(O)c2n1 [BROQUINALDOL],IC50,[19],0.311 µM (active)
same,IC50,[20],4.77 µM (active)
same,IC50,[21],1.03 µM (active)
same,IC50,[22],1.16 µM (active)
same,IC50,[23],12.8 µM (inactive)
same,IC50,[24],0.001 µM (active)
same,IC50,[25],> 6.67 µM (inactive)
